From publication PMC10553834, “Differentiating the roles of Mycobacterium tuberculosis substrate binding proteins, FecB and FecB2, in iron uptake” (PLOS Pathogens, 2023) come the findings set out here.

In the experiment the target is FecB E339S (Mycobacterium tuberculosis, UniProt O53291, E339S). It counts as binding.

One may read the Kd as the concentration at which binding is half-saturated.

In turn, carboxymycobactin [apo-cMB] returned a Fold-decrease of around 1.7 and a dissociation constant (Kd) of 4.8 ± 0.3 µM.
